From patent US11192880B2, “Quinolone compounds as inhibitors of the BCL6 BTB domain protein-protein interaction and/or as BCL6 degraders” (Ontario Institute for Cancer Research (OICR), priority 2017, dated 2021)

Experiments:
BCL6 BTB domain = BCL6 BTB domain (Homo sapiens (Human), UniProt P41182); assay: Surface plasmon resonance (SPR) assay; type: binding; settings: single cycle kinetic analysis, Biacore T200
Description: (b) Surface Plasmon Resonance (SPR) Assay
SPR studies were performed using a Biacore™ T200 instrument (GE Health Sciences Inc.). The BCL6 BTB protein used in the FP assay was biotinylated using the site specific biotinylating enzyme BirA, and then cleaved with TEV protease to produce the BCL6 BTB domain (biotin-thrombin-BCL6 amino acids 1-129; 17 kd) that was use in SPR. This protein was stably captured (1000 RU) to streptavidin coupled SA chips (BR-1005-31, GE Health Sciences Inc.) according to the manufacture's protocol. Compounds were dissolved in 100% DMSO at 10 mM and 2-fold serial dilutions were done in 100% DMSO. For SPR analysis the serially titrated compounds were diluted 1/20 into buffer (10 mM HEPES pH7.4, 150 mM NaCl, 0.05% Tween-20, 3 mM EDTA) giving a final concentration of 5% DMSO. The Biacore flow rate was set at 100 ul/min. For KD determinations, single cycle kinetic analysis was performed with an on time of 60 seconds, and an off time of 300 seconds. Curve fitting and KD calculations were done with the Biacore T200 Evaluation software (GE Health Sciences Inc).

[1] = target: BTB domain of BCL6 / SMRT BBD peptide (Homo sapiens (Human), UniProt P41182); assay: BCL6-BTB-SMRT peptide inhibition fluorescence polarization (FP) screen; type: binding; settings: 1.25 uM BCL6-BTB, 20 nM Bodipy-TMR SMRT peptide probe; lower limit of assay 1 uM
Description: (a) BCL6-BTB-SMRT Peptide Inhibition Fluorescence Polarization (FP) Screen
Compounds were dissolved in 100% DMSO at 10 mM, assayed fresh, and then stored at −20° C. for repeat studies and future work. The reaction mixture consists of 1.25 uM of the 25 kd BCL6-BTB domain (Thioredoxin-His6-STag-TEV-biotinylation-thrombin-BCL6 amino acids 1-129) plus 20 nM of the peptide probe Ac-GSLVATVKEAGRSIHEIPA (SEQ ID NO:1) with 16 amino-acids (16-mer peptide) from the SMRT BBD (1414-1429) with a Bodipy-TMR fluorescent label on the lysine. […] 20 ul of this assay mixture was added to each well of the 384 well plates with the exception of the control wells that contained no protein (for setting the minimum FP value). Compounds were directly sprayed using an HP D300 Digital Dispenser from 10 mM DMSO stocks onto black 384 well plates (greiner bio-one #781900) in a concentration range from 1 uM to 500 uM (10 points in duplicate). The assay was equilibrated for 1 hour prior to reading the FP values (Ex 540 nm/Em 580 nm) with a Perkin Elmer Envision plate reader. The results were curve fitted and IC50 values were calculated using the BioAssay software from CambridgeSoft.

[2] = system: BCL6 reporter construct in SuDHL4-3xBCL6-TK-Luc cells; assay: Cell-based BCL6 reporter luciferase assay; settings: 48 h, two days
Description: (c) Cell-Based Luciferase Assay:
A BCL6 reporter construct containing three copies of the consensus BCL6 binding site, the TK promoter, and the firefly luciferase gene was stably expressed in SuDHL4 cells after lentivirus infection and selection with Blasticidin. SuDHL4-3xBCL6-TK-Luc cells were seeded into a Viewplate 384-well assay dish at 15,000 cells/well in 25 ul medium (Alpha-MEM high glucose containing 10% FBS, 25 mM HEPES, […] GlutaMAX, 100 ug/ml Normocin, and […] Gentamycin, Invitrogen). A HP D300 digital dispenser was used to dose cells with DMSO or test compounds across a 10-point range of concentrations (high dose of 10 uM), and cultures were grown in a humidified 5% CO2 incubator at 37° C. After two days, plates were removed from incubator and equilibrated to room temperature. An equal volume of neolite reporter gene assay reagent was added to each well, and samples were processed according to manufacturer's instructions (Perkin Elmer). Luminescent signal was measured using an Envision™ plate reader equipped with a US-Luminescence detector.

[3] = Liver microsomal metabolic stability, mouse; type: in vitro ADME; settings: % remaining after 60 minutes, 1 μM compound, 0.5 mg/mL protein
Description: (§1) (f) Microsomal Stability Assays
(§2) Liver Microsomal Metabolic Stability
(§3) Working stocks were initially diluted to a concentration of 40.0 μM in 0.1 M potassium phosphate buffer (pH 7.4) before addition to the reaction vials. CD-1 mouse (male) or pooled human liver microsomes (Corning Gentest) were utilized at a final concentration of 0.5 mg/mL (protein). Duplicate wells were used for each time point (0 and 60 minutes). Reactions were carried out at 37° C. in an orbital shaker at 175 rpm, and the final DMSO concentration was kept constant at 0.1%. The final volume for each reaction was 100 μL, which includes the addition of an NADPH-Regeneration Solution (NRS) mix. This NRS mix is comprised of glucose 6-phosphate dehydrogenase, NADP+, MgCl2, and glucose 6-phosphate. Upon completion of the 60 minute time point, reactions were terminated by the addition of 2-volumes (200 μL) of ice-cold, acetonitrile containing 0.5% formic acid and internal standard. Samples were then centrifuged at 4,000 rpm for 10 minutes to remove debris and precipitated protein. Approximately 150 μL of supernatant was subsequently transferred to a new 96 well microplate for LC/MS analysis:
(§4) Narrow-window mass extraction LC-MS analysis was performed for all samples in this study using a Waters Xevo quadrupole time-of-flight (QTof) mass spectrometer to determine relative peak areas of test compounds. The percent remaining values are calculated using the following equations: % remaining=(A)/A0×100
(§5) A is area response after incubation
(§6) A0 is area response at initial time point

[4] = Liver microsomal metabolic stability, human; type: in vitro ADME; settings: % remaining after 60 minutes, 1 μM compound, 0.5 mg/mL protein
Description: as §1, §2, §3, §4, §5, §6

Karpas422 cells = assay: Tumor cell growth inhibition assay; type: cell-based; settings: Homo sapiens, KARPAS-422, 144 h, six days, ATPlite, read-out: GI Karpas EC50
Description: (d) Tumor Cell Growth Inhibition Assay:
Karpas422 cells were seeded into a 96-well plate at 2,000 cells/well in 150 ul medium (Alpha-MEM containing 10% FBS, […] Normocin, and […] Gentamycin, Invitrogen). A HP D300 digital dispenser was used to dose cells with DMSO or test compounds across a 10-point range of concentrations (high dose of 5 uM), and cultures were grown in a humidified 5% CO2 incubator at 37° C. After six days, plates were removed from incubator and equilibrated to room temperature. An equal volume of ATPlite assay reagent was added to each well, and samples were processed according to manufacturer's instructions (Perkin Elmer). Luminescent signal was measured using an Envision plate reader equipped with a US-Luminescence detector.

[5] = reported; limits its use in animal studies; cited from earlier work

| Kd (BCL6 BTB domain) [nM] | IC50 [1] [nM] | IC50 [2] [nM] | Mouse Liver Microsomes (MLM, % @ 1 h) [3] [%] | Human Liver Microsomes (HLM, % @ 1 h) [4] [%] | EC50 (Karpas422 cells) [nM] | Compound | bioavailability [5] |
| --- | --- | --- | --- | --- | --- | --- | --- |
| 15.7 | 1800 | 643 | 0.5 | 44 | 37.8 | CNC(=O)COc1cc2cc(Nc3nc(N4CC5CCC(C4)C5(F)F)ncc3Cl)ccc2n(C)c1=O [Compound X-3] | – |
| – | – | – | 13 | 25 | – | CNC(=O)COc1cc2cc(Nc3nc(N4C[C@H](C)C[C@H](C)C4)ncc3Cl)ccc2n(C)c1=O [BI-3802, reference compound] | poor bioavailability |
| 10.3 | 1200 | 91.9 | 70 | 74 | 30.6 | CNC(=O)COc1cc2cc(Nc3nc(N4C[C@@H](C)O[C@@H](C)C4)ncc3Cl)ccc2n(C)c1=O [Compound X-2] | – |
| 5.33 | 900 | 6.84 | 61 | 77 | 3.36 | CNC(=O)COc1cc2cc(Nc3nc(N4C[C@@H](C)C(F)(F)[C@@H](C)C4)ncc3Cl)ccc2n(C)c1=O [Ia] | – |
| 5.73 | 1600 | 433 | 15 | 34 | 92.6 | CNC(=O)COc1cc2cc(Nc3nc(N4C[C@@H](C)N[C@@H](C)C4)ncc3Cl)ccc2n(C)c1=O [Compound X-1, 2-((6-((5-chloro-2-((3S,5R)-3,5-dimethylpiperazin-1-yl)pyrimidin-4-yl)amino)-1-methyl-2-oxo-1,2-dihydroquinolin-3-yl)oxy)-N-methylacetamide] | – |
